The text below walks through data of patent US10544130B2, “Metallo-beta-lactamase inhibitors” (priority 2015, dated 2020).

The data set has as its system Pseudomonas aeruginosa PAO1 MB9798 (efflux+, IMP-1). The conditions noted are these: ratio MITC95 PA 9798/MITC95 PA 9799; imipenem at 2 μg/mL. The method in brief:
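Isogenic PAO1 pair (efflux+ MB9798, efflux− MB9799, both IMP-1) tested by microbroth MIC with fixed imipenem and/or ceftazidime, usually at CLSI breakpoint, plus fixed class A/C inhibitor against AmpC. MBL inhibitor titrated; concentration restoring susceptibility recorded and fold difference between strains taken as efflux extent.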

As to `Nc1nc2c(-c3ccc(S(=O)(=O)NCC4(N)CC4)c(S(N)(=O)=O)c3-c3nn[nH]n3)cccc2s1` [Example 149, 4-(2-aminobenzo[d]thiazol-4-yl)-N1-((1-aminocyclopropyl)methyl)-3-(2H-tetrazol-5-yl)benzene-1,2-disulfonamide], the Efflux ratio was 1.00.
With `Nc1nc2c(-c3ccc(S(=O)(=O)N[C@@H](N)c4ccccn4)c(S(N)(=O)=O)c3-c3nnn[nH]3)cccc2s1.O=C(O)C(F)(F)F` [Example 99, (R)-(4-(2-aminobenzo[d]thiazol-4-yl)-2-sulfamoyl-3-(1H-tetrazol-5-yl)phenylsulfonamido) (pyridin-2-yl)methanaminium 2,2,2-trifluoroacetate], the Efflux ratio amounted to 8.00.
The figure for `NC1CCC(c2ccc(S(N)(=O)=O)c(S(N)(=O)=O)c2-c2nnn[nH]2)CC1` (stereo not drawn) [Example 165, 4-(4-aminocyclohexyl)-3-(1H-tetrazol-5-yl)benzene-1,2-disulfonamide] is 4.00; for `N[C@@H](CO)CNS(=O)(=O)c1ccc(-c2cccc(C3N=CN=N3)c2)c(-c2nn[nH]n2)c1S(N)(=O)=O` (stereo partly drawn) [Example 226, N4-((R)-2-amino-3-hydroxypropyl)-2-(2H-tetrazol-5-yl)-3′-(3H-1,2,4-triazol-3-yl)-[1,1′-biphenyl]-3,4-disulfonamide] it is 2.00; for `NCCNS(=O)(=O)c1ccc(-c2cccc(-c3n[nH]c(N)n3)c2)c(-c2nn[nH]n2)c1S(N)(=O)=O` [Example 228, 3′-(5-amino-1H-1,2,4-triazol-3-yl)-N4-(2-aminoethyl)-2-(2H-tetrazol-5-yl)-[1,1′-biphenyl]-3,4-disulfonamide] it is 1.00.
Regarding `Nc1nc2c(-c3ccc(S(=O)(=O)NCCC(N)CF)c(S(N)(=O)=O)c3-c3nnn[nH]3)cccc2s1.O=CO` (stereo not drawn) [Example 123, 4-(4-(2-aminobenzo[d]thiazol-4-yl)-2-sulfamoyl-3-(1H-tetrazol-5-yl)phenylsulfonamido)-l-fluorobutan-2-aminium formate], the Efflux ratio was found to be 1.00.
For the compound `C[C@H](CN)NS(=O)(=O)c1ccc(-c2cccc3[nH]nnc23)c(-c2nn[nH]n2)c1S(N)(=O)=O` [Example 237, (R)-N^1-(1-aminopropan-2-yl)-4-(1H-benzo[d][1,2,3]triazol-4-yl)-3-(2H-tetrazol-5-yl)benzene-1,2-disulfonamide], the Efflux ratio is reported as 0.50.
The same measure for `NCCNS(=O)(=O)c1ccc(-c2cccc3[nH]cnc23)c(-c2nn[nH]n2)c1S(N)(=O)=O` [Example 199, N^1-(2-aminoethyl)-4-(1H-benzo[d]imidazol-4-yl)-3-(2H-tetrazol-5-yl)benzene-1,2-disulfonamide]: 0.55; for `CN1CCC(N(C)S(=O)(=O)c2ccc(-c3cccc4sc(N)nc34)c(-c3nnn[nH]3)c2S(N)(=O)=O)C1` (stereo not drawn) [Example 54, 4-(2-amino-1,3-benzothiazol-4-yl)-N1-methyl-N^1-(1-methylpyrrolidin-3-yl)-3-(1H-tetrazol-5-yl)benzene-1,2-disulfonamide]: 2.00.
As to `Cl.Cn1c(N)nc2c(-c3ccc(S(=O)(=O)NCCN)c(S(N)(=O)=O)c3-c3nn[nH]n3)cccc21` [Example 10, 4-(2-amino-1-methyl-1H-benzo[d]imidazol-4-yl)-N1-(2-aminoethyl)-3-(2H-tetrazol-5-yl)benzene-1,2-disulfonamide hydrochloride], the Efflux ratio was found to be 1.00.
The same measure for `NS(=O)(=O)c1c(S(=O)(=O)N[C@@H]2CCNC2)ccc(-c2ccc3c(c2)C(=O)NC3)c1-c1nnn[nH]1` [Example 138, (R)-4-(3-oxoisoindolin-5-yl)-N1-(pyrrolidin-3-yl)-3-(1H-tetrazol-5-yl)benzene-1,2-disulfonamide]: 1.00; for `NC(=O)c1ccc(-c2ccc(S(=O)(=O)N[C@@H]3CCNC3)c(S(N)(=O)=O)c2-c2nnn[nH]2)cc1` [Example 137, (R)-4′-(N-(pyrrolidin-3-yl)sulfamoyl)-3′-sulfamoyl-2′-(1H-tetrazol-5-yl)-[1,1′-biphenyl]-4-carboxamide]: 1.00.
Turning to `Nc1nc2c(-c3ccc(S(=O)(=O)NC[C@H](N)CO)c(S(N)(=O)=O)c3-c3nn[nH]n3)cccc2[nH]1` [Example 191, 4-(2-amino-1H-benzo[d]imidazol-4-yl)-N^1—((S)-2-amino-3-hydroxypropyl)-3-(2H-tetrazol-5-yl)benzene-1,2-disulfonamide], the Efflux ratio is 1.00.
Turning to `CN([C@H]1CCNC1)S(=O)(=O)c1ccc(-c2cccc3sc(N)nc23)c(-c2nnn[nH]2)c1S(N)(=O)=O` [Example 65, 4-(2-amino-1,3-benzothiazol-4-yl)-N1-methyl-N1-[(3S)-pyrrolidin-3-yl]-3-(1H-tetrazol-5-yl)benzene-1,2-disulfonamide], the Efflux ratio was 2.00.
For the compound `NC[C@H](O)CNS(=O)(=O)c1ccc(-c2ccc(N)nc2)c(-c2nn[nH]n2)c1S(N)(=O)=O` [Example 309, (S)-N1-(3-amino-2-hydroxypropyl)-4-(6-aminopyridin-3-yl)-3-(2H-tetrazol-5-yl)benzene-1,2-disulfonamide], the Efflux ratio amounted to 1.00.
The figure for `NS(=O)(=O)c1c(S(=O)(=O)N[C@@H]2CCNC2)ccc(-c2cccc(-c3nc[nH]n3)c2)c1-c1nn[nH]n1` [Example 225, (R)-N4-(pyrrolidin-3-yl)-2-(2H-tetrazol-5-yl)-3′-(1H-1,2,4-triazol-3-yl)-[1,1′-biphenyl]-3,4-disulfonamide] is 1.00; for `Cn1cnc(CNS(=O)(=O)c2ccc(-c3cccc4sc(N)nc34)c(-c3nnn[nH]3)c2S(N)(=O)=O)n1` [Example 20, 4-(2-amino-1,3-benzothiazol-4-yl)-N^1-[(1-methyl-1H-1,2,4-triazol-3-yl)methyl]-3-(1H-tetrazol-5-yl)benzene-1,2-disulfonamide] it is 1.00.
In the case of `Nc1nc2c(-c3ccc(S(=O)(=O)N[C@H]4CNC[C@@H]4O)c(S(N)(=O)=O)c3-c3nnn[nH]3)cccc2[nH]1` [Example 169, 4-(2-amino-1H-benzo[d]imidazol-4-yl)-N^1-((3S,4S)-4-hydroxypyrrolidin-3-yl)-3-(1H-tetrazol-5-yl)benzene-1,2-disulfonamide], the Efflux ratio was 1.00.
The same measure for `Nc1nc2c(-c3ccc(S(=O)(=O)NC4CCNCC4)c(S(N)(=O)=O)c3-c3nnn[nH]3)cccc2s1` [Example 32, 4-(2-amino-1,3-benzothiazol-4-yl)-N1-piperidin-4-yl-3-(1H-tetrazol-5-yl)benzene-1,2-disulfonamide]: 0.50; for `C[N+]1(C)CC[C@@H](NS(=O)(=O)c2ccc(-c3cccc4[nH]c(N)nc34)c(-c3nn[nH]n3)c2S(N)(=O)=O)C1.[Cl-]` [Example 233, (R)-3-((4-(2-amino-1H-benzo[d]imidazol-4-yl)-2-sulfamoyl-3-(2H-tetrazol-5-yl)phenyl)sulfonamido)-1,1-dimethylpyrrolidin-1-ium chloride]: 1.00; for `CC1(NS(=O)(=O)c2ccc(-c3cccc4sc(N)nc34)c(-c3nnn[nH]3)c2S(N)(=O)=O)CCCNC1` (stereo not drawn) [Example 57, 4-(2-amino-1,3-benzothiazol-4-yl)-N1-(3-methylpiperidin-3-yl)-3-(1H-tetrazol-5-yl)benzene-1,2-disulfonamide]: 1.00.
